A short description of series [1]: Antioxidant activity assessed as DPPH radical scavenging activity incubated for 60 mins in absence of light. The class given is functional.
A short description of series [2]: Permeability of the compound at pH 7.4 by PAMPA-BBB assay. The class given is ADME. Conditions: read-out: permeability.
Another series relates to SH-SY5Y. Kind of series: Antioxidant activity in human SH-SY5Y cells assessed as inhibition of H2O2-induced DCFH oxidation measured after 1 hr by DCFH-DA dye based fluorescence assay. The class given is functional, cell-based.
Series [3] is described as follows: Cytotoxicity against human SH-SY5Y cells assessed as cell viability at 100 uM measured after 2 hrs by MTT assay relative to control. The class given is cell-based. To be noted: read-out: Activity.
Series [4] is described as follows: Cytotoxicity against human SH-SY5Y cells assessed as cell viability at 50 uM measured after 2 hrs by MTT assay relative to control. The class given is cell-based. Conditions: read-out: Activity.
Series [5] can be described thus: Cytotoxicity against human SH-SY5Y cells assessed as cell viability at 25 uM measured after 2 hrs by MTT assay relative to control. The class given is cell-based. Conditions: read-out: Activity.
Series [6] can be described thus: Cytotoxicity against human SH-SY5Y cells assessed as cell viability at 12.5 uM measured after 2 hrs by MTT assay relative to control. The class given is cell-based. To be noted: read-out: Activity.
The nature of series [7]: Cytotoxicity against human SH-SY5Y cells assessed as cell viability at 6.3 uM measured after 2 hrs by MTT assay relative to control. The class given is cell-based. To be noted: read-out: Activity.
Series [8] is described as follows: Cytotoxicity against human SH-SY5Y cells assessed as cell viability at 3.1 uM measured after 2 hrs by MTT assay relative to control. To be noted: read-out: Activity. The series is classed as cell-based.
Series [9] can be described thus: Cytotoxicity against human SH-SY5Y cells assessed as cell viability at 1.6 uM measured after 2 hrs by MTT assay relative to control. The class given is cell-based. Conditions: read-out: Activity.
Series [10] is described as follows: Cytotoxicity against human SH-SY5Y cells assessed as cell viability at 0.8 uM measured after 2 hrs by MTT assay relative to control. The class given is cell-based. Conditions: read-out: Activity.
A short description of series [11]: Cytotoxicity against human SH-SY5Y cells assessed as cell viability at 100 uM measured after 24 hrs by MTT assay relative to control. The series is classed as cell-based. To be noted: read-out: Activity.
The nature of series [12]: Cytotoxicity against human SH-SY5Y cells assessed as cell viability at 50 uM measured after 24 hrs by MTT assay relative to control. The class given is cell-based. To be noted: read-out: Activity.
A short description of series [13]: Cytotoxicity against human SH-SY5Y cells assessed as cell viability at 25 uM measured after 24 hrs by MTT assay relative to control. The series is classed as cell-based. To be noted: read-out: Activity.
Series [14] is described as follows: Cytotoxicity against human SH-SY5Y cells assessed as cell viability at 12.5 uM measured after 24 hrs by MTT assay relative to control. The series is classed as cell-based. Conditions: read-out: Activity.
Series [15] is described as follows: Cytotoxicity against human SH-SY5Y cells assessed as cell viability at 6.3 uM measured after 24 hrs by MTT assay relative to control. The class given is cell-based. Conditions: read-out: Activity.
Series [16] can be described thus: Cytotoxicity against human SH-SY5Y cells assessed as cell viability at 3.1 uM measured after 24 hrs by MTT assay relative to control. The series is classed as cell-based. Conditions: read-out: Activity.
Series [17] can be described thus: Cytotoxicity against human SH-SY5Y cells assessed as cell viability at 1.6 uM measured after 24 hrs by MTT assay relative to control. The class given is cell-based. Conditions: read-out: Activity.
Series [18] in a line: Cytotoxicity against human SH-SY5Y cells assessed as cell viability at 0.8 uM measured after 24 hrs by MTT assay relative to control. The class given is cell-based. Conditions: read-out: Activity.
A short description of series [19]: Drug concentration in Sprague-Dawley rat plasma at 0.2 mmol/Kg, ip measured after 1 hr by HPLC based fluorimetric analysis. The class given is ADME, organism-based.
Series [20] is described as follows: Drug concentration in Sprague-Dawley rat brain at 0.2 mmol/Kg, ip measured after 1 hr by HPLC based fluorimetric analysis. The class given is ADME, organism-based. To be noted: in vivo.
The nature of series [21]: Retention time in Sprague-Dawley rat plasma by HPLC based fluorimetric analysis. The series is classed as ADME, cell-free.
A short description of series [22]: Retention time in Sprague-Dawley rat brain by HPLC based fluorimetric analysis. The series is classed as ADME, tissue-based.

The values that follow come from ChEMBL document CHEMBL4715750, “Synthesis and in vitro, ex-vivo and in vivo activity of hybrid compounds linking a potent ROS and RNS scavenger activity with diverse substrates addressed to pass across the blood-brain barrier” (Eur J Med Chem, 2016).

Regarding `COc1cc2c(cc1O)CCC(C)(C)O2`, the IC50 in series [1] turned out to be 14.1 µM; with SH-SY5Y it was 21.7 µM. In series [2], the Papp is 0.25 ×10⁻⁶ cm/s. The Activity entry in the series with SH-SY5Y was “Dose-dependent effect”. Moreover, the viability at 2 h, 100 µM in [3] worked out at 66.9%. For the same molecule, the viability at 2 h, 50 µM in [4] turned out to be 86.8%. The viability at 2 h, 25 µM in [5] was 90.6%. In addition, in [6], the viability at 2 h, 12.5 µM worked out at 91.5%. Further, in series [7], the viability at 2 h, 6.3 µM was 92.2%. The viability at 2 h, 3.1 µM in series [8] stood at 85.6%. For the same molecule, the viability at 2 h, 1.6 µM in series [9] came out at 94.1%. Also, the viability at 2 h, 0.8 µM in series [10] was found to be 98.5%. Also, in series [11], the viability at 24 h, 100 µM came out at 96.1%. Also, in series [12], the viability at 24 h, 50 µM came to 95.2%. For the same molecule, in series [13], the viability at 24 h, 25 µM amounted to 93.2%. Further, the viability at 24 h, 12.5 µM in series [14] was found to be 100%. Further, in series [15], the viability at 24 h, 6.3 µM amounted to 98%. Besides, in series [16], the viability at 24 h, 3.1 µM is 99.4%. Moreover, in series [17], the viability at 24 h, 1.6 µM is 93.9%. The viability at 24 h, 0.8 µM in [18] was 91.1%. The molecule also had a concentration at 1 h in series [19] of 2400 nM. This molecule came in with a Ct in series [20] of 4 nmol/g. In addition, the Retention_time in series [21] and in series [22] was 8 min throughout.
